# Legend:
# mu opioid receptor (MOR) [1] = target: T1, mu opioid receptor (MOR) (Homo sapiens, UniProt P35372); assay: PathHunter β-arrestin recruitment assay, PAM mode with EC20 endomorphin-1; assay type: cell-based; conditions: for EC50: read-out: β-arr. EC50
# How it was run: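 Enzyme fragment complementation read-out: β-gal ED fragment fused to receptor, EA fused to β-arrestin, recruitment restoring β-gal activity detected by chemiluminescence. EC50 and percent maximal response derived for each compound.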
# mu opioid receptor (MOR) [2] = target: T1, mu opioid receptor (MOR); assay: Hit Hunter cAMP signaling assay (adenylyl cyclase inhibition), PAM mode with EC20 endomorphin-1; assay type: cell-based
# [3] = maximal response for β-arrestin recruitment
# [4] = adenylyl cyclase inhibition, read-out: cAMP EC50
# [5] = maximal response for adenylyl cyclase inhibition
# [6] = cAMP EC50, adenylyl cyclase inhibition
# [7] = maximal response, β-arrestin recruitment
# [8] = maximal response, adenylyl cyclase inhibition
# T1 sequence (P35372 whole entry, the tested form may be a part): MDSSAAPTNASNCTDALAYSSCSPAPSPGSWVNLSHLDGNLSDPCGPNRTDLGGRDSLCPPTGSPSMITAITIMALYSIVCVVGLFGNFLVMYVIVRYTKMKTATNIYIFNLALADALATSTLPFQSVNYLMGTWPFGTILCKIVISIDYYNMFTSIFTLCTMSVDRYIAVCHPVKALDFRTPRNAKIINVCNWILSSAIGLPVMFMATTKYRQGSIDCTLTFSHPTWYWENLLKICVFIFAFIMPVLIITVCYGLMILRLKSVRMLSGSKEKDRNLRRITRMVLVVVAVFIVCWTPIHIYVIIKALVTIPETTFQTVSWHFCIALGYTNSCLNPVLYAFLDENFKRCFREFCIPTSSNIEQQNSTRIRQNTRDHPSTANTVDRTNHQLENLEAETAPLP
SMILES,β-arr Max. Resp. (mu opioid receptor (MOR) [1]; [3]),EC50 (mu opioid receptor (MOR) [1]; β-arrestin recruitment),EC50 (mu opioid receptor (MOR) [2]; [4]),cAMP Max. Resp. (mu opioid receptor (MOR) [2]; [5]),EC50 (mu opioid receptor (MOR) [2]; [6]),β-arr Max. Resp. (mu opioid receptor (MOR) [1]; [7]),cAMP Max. Resp. (mu opioid receptor (MOR) [2]; [8])
O=S(=O)(Cc1ccccc1Cl)N1CCCCC1c1cccc(C(F)(F)F)c1 (centres unmarked) [Compound 24],F (F represents a maximal response of > 60%),> 2100 nM,> 2100 nM,D (D represents a maximal response of < 40%),–,–,–
O=S(=O)(c1ccc(Cl)cc1)N1CCCCC1c1cccc(C(F)(F)F)n1 (centres unmarked) [compound 3],F (F represents a maximal response of > 60%),< 700 nM,–,F (F represents a maximal response of > 60%),< 700 nM,–,–
COc1ncc(F)c(N2CCCCC2c2ccc(OC)c(Br)c2)n1 (centres unmarked) [compound 225],F (F represents a maximal response of > 60%),> 2100 nM,–,F (F represents a maximal response of > 60%),> 2100 nM,–,–
Fc1ccc(C2CCCCN2c2nc(Cl)ncc2F)nc1 (centres unmarked) [compound 372],D (D represents a maximal response of < 40%),< 700 nM,–,D (D represents a maximal response of < 40%),< 700 nM,–,–
Fc1ccc(C2CCCCN2c2cccc(Cl)c2)cc1Cl (centres unmarked) [compound 443],–,> 2100 nM,–,–,> 2100 nM,F (F represents a maximal response of > 60%),D (D represents a maximal response of < 40%)
Fc1cnc(Cl)nc1N1CCOCC1c1cccc(C(F)(F)F)n1 (racemic) [Compound 186],E (E represents a maximal response of 40-60%),> 2100 nM,> 2100 nM,D (D represents a maximal response of < 40%),–,–,–
Fc1ccc(Cl)cc1CN1CCCCC1c1cccc(OC(F)(F)F)n1 (centres unmarked) [compound 169],F (F represents a maximal response of > 60%),< 700 nM,–,F (F represents a maximal response of > 60%),< 700 nM,–,–
Cc1cccc(S(=O)(=O)N2CCCCC2c2cccc(C(F)(F)F)c2)c1 (centres unmarked) [Compound 27],F (F represents a maximal response of > 60%),> 2100 nM,> 2100 nM,E (E represents a maximal response of 40-60%),–,–,–
[2H]C1(c2ccc(F)c(Br)c2)C(F)CCCN1S(=O)(=O)c1ccc(Cl)cc1 (centres unmarked) [Compound 29],F (F represents a maximal response of > 60%),–,–,E (E represents a maximal response of 40-60%),–,–,–
Fc1ccc(C2CCCCN2Cc2ccnc(Cl)c2)cc1Cl (centres unmarked) [compound 174],F (F represents a maximal response of > 60%),700 to 2100 nM,–,E (E represents a maximal response of 40-60%),700 to 2100 nM,–,–
CN(C)c1ncc(F)c(N2CCCCC2c2cccc(F)n2)n1 (centres unmarked) [compound 242],D (D represents a maximal response of < 40%),> 2100 nM,–,D (D represents a maximal response of < 40%),> 2100 nM,–,–
O=S(=O)(c1ccc(Cl)cc1)N1CCCCC1c1cccc(OC(F)(F)F)n1 (racemic) [compound 48],F (F represents a maximal response of > 60%),> 2100 nM,> 2100 nM,E (E represents a maximal response of 40-60%),–,–,–
Fc1cnc(Cl)nc1N1CCCCC1c1cccc2nccn12 (centres unmarked) [compound 284],D (D represents a maximal response of < 40%),> 2100 nM,–,E (E represents a maximal response of 40-60%),> 2100 nM,–,–
O=S(=O)(Cc1ccc(Cl)cc1)N1CCCCC1c1cccc(C(F)(F)F)c1 (centres unmarked) [Compound 22],F (F represents a maximal response of > 60%),> 2100 nM,> 2100 nM,D (D represents a maximal response of < 40%),–,–,–
COc1ccc(C2COCCN2Cc2cc(Cl)ccc2F)cc1Br (racemic) [Compound 192],F (F represents a maximal response of > 60%),> 2100 nM,> 2100 nM,D (D represents a maximal response of < 40%),–,–,–
O=S(=O)(c1ccc(Cl)cc1)N1CCCCC1c1ccc(F)c(Cl)c1 (racemic) [compound 52],F (F represents a maximal response of > 60%),< 700 nM,< 700 nM,F (F represents a maximal response of > 60%),–,–,–

SMILES,β-arr Max. Resp. (mu opioid receptor (MOR) [1]; [3]),EC50 (mu opioid receptor (MOR) [1]; β-arrestin recruitment),EC50 (mu opioid receptor (MOR) [2]; [4]),cAMP Max. Resp. (mu opioid receptor (MOR) [2]; [5]),EC50 (mu opioid receptor (MOR) [2]; [6]),β-arr Max. Resp. (mu opioid receptor (MOR) [1]; [7]),cAMP Max. Resp. (mu opioid receptor (MOR) [2]; [8])
C#Cc1cccc(N2CCCCC2c2cccc(C(F)(F)F)n2)c1 (centres unmarked) [compound 451],–,> 2100 nM,–,–,> 2100 nM,F (F represents a maximal response of > 60%),D (D represents a maximal response of < 40%)
Fc1cnc(Cl)nc1N1CCCCC1c1cccnc1F (centres unmarked) [compound 335],D (D represents a maximal response of < 40%),< 700 nM,–,D (D represents a maximal response of < 40%),< 700 nM,–,–
COc1ccc(C2C(C(F)(F)F)CCN2S(=O)(=O)c2ccc(Cl)cc2)cc1Br (mixture of isomers) [Compound 90],D (D represents a maximal response of < 40%),> 2100 nM,> 2100 nM,D (D represents a maximal response of < 40%),–,–,–
CNc1cccc(C2CCCCN2Cc2cc(Cl)ccc2F)n1 (centres unmarked) [compound 168],F (F represents a maximal response of > 60%),> 2100 nM,–,F (F represents a maximal response of > 60%),> 2100 nM,–,–
Cc1nccc(N2CCCCC2c2ccc(F)c(Cl)c2)n1 (centres unmarked) [compound 480],–,> 2100 nM,–,–,> 2100 nM,D (D represents a maximal response of < 40%),D (D represents a maximal response of < 40%)
O=S(=O)(c1ccc(Cl)cc1)N1CCCCC1c1ccc(F)nc1 (racemic) [compound 53],F (F represents a maximal response of > 60%),> 2100 nM,> 2100 nM,F (F represents a maximal response of > 60%),–,–,–
COc1ccc(C2CCCCN2c2ncnc(Cl)c2F)cc1Br (centres unmarked) [compound 228],F (F represents a maximal response of > 60%),> 2100 nM,–,F (F represents a maximal response of > 60%),> 2100 nM,–,–
"[2H]C1(c2cccc(C(F)(F)F)c2)C(F)CCCN1c1nc(Cl)ncc1F (single isomer, unassigned) [compound 208]",F (F represents a maximal response of > 60%),> 2100 nM,–,F (F represents a maximal response of > 60%),–,–,–
Fc1cnc(Cl)nc1N1CCCCC1c1nc2ccccc2s1 (centres unmarked) [compound 340],D (D represents a maximal response of < 40%),< 700 nM,–,D (D represents a maximal response of < 40%),< 700 nM,–,–
Cc1noc(C2CCCCN2c2nc(Cl)ncc2F)n1 (centres unmarked) [compound 358],D (D represents a maximal response of < 40%),< 700 nM,–,D (D represents a maximal response of < 40%),< 700 nM,–,–
Cc1ccc(C2C(C)CCN2S(=O)(=O)c2ccc(Cl)cc2)cc1Br (mixture of isomers) [Compound 104],F (F represents a maximal response of > 60%),700 to 2100 nM,700 to 2100 nM,D (D represents a maximal response of < 40%),–,–,–
O=S(=O)(c1ccc(Cl)cc1)N1CCCC(F)C1c1ccc(F)c(Br)c1 (centres unmarked) [Compound 29],–,> 2100 nM,> 2100 nM,–,–,–,–
CC1CCN(S(=O)(=O)c2ccc(Cl)cc2)C1c1ccc(F)c(F)c1 (mixture of isomers) [Compound 97],F (F represents a maximal response of > 60%),700 to 2100 nM,700 to 2100 nM,D (D represents a maximal response of < 40%),–,–,–
Fc1cc(C2CCCCN2Cc2cccc(Br)c2)cc(C(F)(F)F)c1 (centres unmarked) [compound 148],F (F represents a maximal response of > 60%),700 to 2100 nM,–,E (E represents a maximal response of 40-60%),> 2100 nM,–,–
O=S(=O)(c1ccc(Cl)cc1)N1CCCCC1c1ccc(Cl)c(Br)c1 (racemic) [compound 74],F (F represents a maximal response of > 60%),> 2100 nM,> 2100 nM,E (E represents a maximal response of 40-60%),–,–,–

# — patent US11071731B2, “Allosteric modulators of the mu opioid receptor” (Chiromics, LLC, priority 2017, dated 2021)
